Results from patent US8796256B2 (Janssen Pharmaceutica NV, priority 2010, dated 2014).
pEC50: −log10 of the molar value. Like-named read-outs stand apart in the source and are kept apart here.

Assays:
[1] = target: T1, ERR1 (also known as ERR-α or ERR-1) (Homo sapiens, UniProt P11474); test: TR-FRET assay (disruption of co-activator peptide binding to ERR1 LBD); type: biochemical; conditions: 6 nM 6His-ERR1LBD, 6 nM GST-SRC-2 peptide; average of 3 independent experiments
T1 sequence (P11474 193-421 limits assumed): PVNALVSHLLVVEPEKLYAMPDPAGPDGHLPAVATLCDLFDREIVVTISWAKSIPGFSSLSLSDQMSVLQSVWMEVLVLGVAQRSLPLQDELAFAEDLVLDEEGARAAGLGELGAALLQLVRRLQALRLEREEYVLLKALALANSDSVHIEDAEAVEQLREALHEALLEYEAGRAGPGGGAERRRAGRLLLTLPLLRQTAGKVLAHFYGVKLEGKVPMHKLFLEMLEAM
Summary of the method: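 Homogeneous TR-FRET measuring displacement of GST-hSRC2 co-activator peptide (6 nM) from His-tagged ERR1 LBD (6 nM), detected with α-GST Eu cryptate (30 nM) and α-His-XL665 (7.5 nM). Buffer 25 mM Tris pH 8, 2.5 mM Hepes, 20 mM KCl, 1 mM DTT, 0.05 mg/mL delipidated BSA; equilibration 4-18 h at 25° C. Hyperbolic dose-response fit, mean of 3 experiments.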

Zucker fa/fa male rats = test: Zucker fa/fa Rat Model Assay; type: in vivo; conditions: po, 120 h, 10 mg/kg orally once a day for 4 days
From the text: Zucker fa/fa is a monogenic model of frank diabetes due to a mutation on the fa gene truncating the leptin receptor and preventing its interaction with its peptide hormone. This mutation results in a hyperphagic phenotype and the rodent develops obesity, hyperlipidemia, fasting hyperglycemia and insulin resistance. Zucker fa/fa male rats were received at four weeks of age and allowed to acclimate for one week. At five weeks of age the animals were single housed in cages in a temperature-controlled room with 12-hour light/dark cycle. The rats were allowed ad libitum access to water and food and throughout the study were maintained on a Purina 5008 diet. Animals were sorted based primarily on fed insulin levels and circulating triglycerides. Animals were dosed orally once a day (10 mg/kg) in the morning for 4 days. The vehicle used was either 20% HPβCD (Hydroxypropyl Beta Cyclodextrin) or 15% Vitamin E/30% PEG-400 (Polyethylene Glycol 400). Fed insulin and triglycerides were measured using blood collected from the tail vein at day 5. Serum plasma samples were prepared by centrifugation in EDTA (Ethylenediaminetetraacetic acid) containing tubes, transferred into 96 well plates and stored at −80° C.

[2] = blood from tail vein at day 5, read-out: % Change Fed Insulin Levels
[3] = blood from tail vein at day 5, read-out: % Change Fed Triglyceride Levels

Row | SMILES | pEC50 [1] | change in vivo at 10 mg/kg (Zucker fa/fa male rats; [2]) | change in vivo at 10 mg/kg (Zucker fa/fa male rats; [3])
1 | COc1ccc(Cn2ncc3cc(/C=C4\SC(=O)N(CCN5CCOCC5)C4=O)ccc32)c(C(F)(F)F)c1 [Compound 8, (5Z)-5-[(1-{[4-(Methyloxy)-2-(trifluoromethyl)phenyl]methyl}-1H-indazol-5-yl)methylidene]-3-(2-morpholin-4-ylethyl)-1,3-thiazolidine-2,4-dione] | 8.10 | -21% | -19%
2 | COc1ccc(Cn2ncc3cc(/C=C4\SC(=O)N(CC(=O)O)C4=O)ccc32)c(C(F)(F)F)c1 [Compound 19, [(5Z)-5-({1-[4-Methoxy-2-(trifluoromethyl)benzyl]-1H-indazol-5-yl}methylidene)-2,4-dioxo-1,3-thiazolidin-3-yl]acetic acid] | 8.05 | -9% | 21%
3 | COc1ccc(Cn2ncc3cc(/C=C4\SC(=O)N(C5CCC(C(=O)O)CC5)C4=O)ccc32)c(C(F)(F)F)c1 (stereo not drawn) [Compound 22, 4-[(5Z)-5-({1-[4-Methoxy-2-(trifluoromethyl)benzyl]-1H-indazol-5-yl}methylidene)-2,4-dioxo-1,3-thiazolidin-3-yl)cyclohexanecarboxylic acid] | 8.10 | -11% | 32%
4 | COc1nn(Cc2ccc(Cl)cc2C(F)(F)F)c2ccc(/C=C3\SC(=O)N(CCN4CCCC4)C3=O)cc12 [Compound 27, (5Z)-5-({1-[4-Chloro-2-(trifluoromethyl)benzyl]-3-methoxy-1H-indazol-5-yl}methylidene)-3-(2-pyrrolidin-1-ylethyl)-1,3-thiazolidine-2,4-dione] | 7.57 | 9% | 0%
5 | Cc1nn(Cc2ccc(Cl)cc2C(F)(F)F)c2ccc(/C=C3\SC(=O)N(CC(=O)O)C3=O)cc12 [Compound 36, [(5Z)-5-({1-[4-Chloro-2-(trifluoromethyl)benzyl]-3-methyl-1H-indazol-5-yl}methylidene)-2,4-dioxo-1,3-thiazolidin-3-yl]acetic acid] | 7.55 | -18% | -4%
6 | O=C1S/C(=C\c2ccc3c(cnn3Cc3ccc(Cl)cc3C(F)(F)F)c2)C(=O)N1Cc1nn[nH]n1 [Compound 72, (5Z)-5-({1-[4-Chloro-2-(trifluoromethyl)benzyl]-1H-indazol-5-yl}methylidene)-3-(2H-tetrazol-5-ylmethyl)-1,3-thiazolidine-2,4-dione] | 7.89 | -44% | -51%
7 | O=C(O)C1CCC(N2C(=O)S/C(=C\c3ccc4c(cnn4Cc4ccc(Cl)cc4C(F)(F)F)c3)C2=O)CC1 (stereo not drawn) [Compound 73, 4-[(5Z)-5-({1-[4-Chloro-2-(trifluoromethyl)benzyl]-1H-indazol-5-yl}methylidene)-2,4-dioxo-1,3-thiazolidin-3-yl]cyclohexanecarboxylic acid] | 7.92 | -30% | -19%
8 | O=C1CN(CCN2C(=O)S/C(=C\c3ccc4c(cnn4Cc4ccc(Cl)cc4C(F)(F)F)c3)C2=O)CCN1 [Compound 79, (5Z)-5-({1-[4-Chloro-2-(trifluoromethyl)benzyl]-1H-indazol-5-yl}methylidene)-3-[2-(3-oxopiperazin-1-yl)ethyl]-1,3-thiazolidine-2,4-dione] | 7.52 | -20% | 34%
9 | N=C(N)NOCCN1C(=O)S/C(=C\c2ccc3c(cnn3Cc3ccc(Cl)cc3C(F)(F)F)c2)C1=O [Compound 91, 1-{2-[(5Z)-5-({1-[4-Chloro-2-(trifluoromethyl)benzyl]-1H-indazol-5-yl}methylidene)-2,4-dioxo-1,3-thiazolidin-3-yl]ethoxy}guanidine] | 7.24 | -68% | -60%
10 | O=C1S/C(=C\c2ccc3c(cnn3Cc3ccc(Cl)cc3C(F)(F)F)c2)C(=O)N1CCN1CCCC1 [Compound 111, (5Z)-5-({1-[4-Chloro-2-(trifluoromethyl)benzyl]-1H-indazol-5-yl}methylidene)-3-(2-pyrrolidin-1-ylethyl)-1,3-thiazolidine-2,4-dione] | 7.77 | -49% | -30%
11 | CS(=O)(=O)NC(=O)CN1C(=O)S/C(=C\c2ccc3c(cnn3Cc3ccc(Cl)cc3C(F)(F)F)c2)C1=O [Compound 126, 2-[(5Z)-5-({1-[4-Chloro-2-(trifluoromethyl)benzyl]-1H-indazol-5-yl}methylidene)-2,4-dioxo-1,3-thiazolidin-3-yl]-N-(methylsulfonyl)acetamide] | 7.74 | -14% | 13%
12 | CN1C2CCC1CC(N1C(=O)S/C(=C\c3ccc4c(cnn4Cc4ccc(Cl)cc4C(F)(F)F)c3)C1=O)C2 (stereo not drawn) [Compound 128, (5Z)-5-({1-[4-Chloro-2-(trifluoromethyl)benzyl]-1H-indazol-5-yl}methylidene)-3-(8-methyl-8-azabicyclo[3.2.1]oct-3-yl)-1,3-thiazolidine-2,4-dione] | 7.72 | -36% | 28%
13 | CN1CC[C@H](N2C(=O)S/C(=C\c3ccc4c(cnn4Cc4ccc(Cl)cc4C(F)(F)F)c3)C2=O)C1 [Compound 143, (5Z)-5-({1-[4-Chloro-2-(trifluoromethyl)benzyl]-1H-indazol-5-yl}methylidene)-3-[(3S)-1-methylpyrrolidin-3-yl]-1,3-thiazolidine-2,4-dione] | 7.60 | -49% | -29%
14 | O=C(O)CN1CCC(N2C(=O)S/C(=C\c3ccc4c(cnn4Cc4ccc(Cl)cc4C(F)(F)F)c3)C2=O)CC1 [Compound 146, {4-[(5Z)-5-({1-[4-Chloro-2-(trifluoromethyl)benzyl]-1H-indazol-5-yl}methylidene)-2,4-dioxo-1,3-thiazolidin-3-yl]piperidin-1-yl}acetic acid] | 7.80 | -26% | -14%

The next lines start with results.

Row | pEC50 [1] | SMILES | change in vivo at 10 mg/kg (Zucker fa/fa male rats; [2]) | change in vivo at 10 mg/kg (Zucker fa/fa male rats; [3])
15 | 7.72 | NS(=O)(=O)NC(=O)CN1C(=O)S/C(=C\c2ccc3c(cnn3Cc3ccc(Cl)cc3C(F)(F)F)c2)C1=O [Compound 31, 2-[(5Z)-5-({1-[4-Chloro-2-(trifluoromethyl)benzyl]-1H-indazol-5-yl}methylidene)-2,4-dioxo-1,3-thiazolidin-3-yl]-N-sulfamoylacetamide] | -51% | -14%
16 | 7.64 | CN(C)S(=O)(=O)NC(=O)CN1C(=O)S/C(=C\c2ccc3c(cnn3Cc3ccc(Cl)cc3C(F)(F)F)c2)C1=O [Compound 35, 2-[(5Z)-5-({1-[4-Chloro-2-(trifluoromethyl)benzyl]-1H-indazol-5-yl}methylidene)-2,4-dioxo-1,3-thiazolidin-3-yl]-N-(dimethylsulfamoyl) acetamide] | -29% | -46%
17 | 7.60 | O=C(CN1C(=O)S/C(=C\c2ccc3c(cnn3Cc3ccc(Cl)cc3C(F)(F)F)c2)C1=O)NS(=O)(=O)N1CCCC1 [Compound 38, 2-[(5Z)-5-({1-[4-Chloro-2-(trifluoromethyl)benzyl]-1H-indazol-5-yl}methylidene)-2,4-dioxo-1,3-thiazolidin-3-yl]-N-(pyrrolidin-1-ylsulfonyl)acetamide] | -47% | 1%
18 | 7.27 | Cc1nn(Cc2ccc(Cl)cc2C(F)(F)F)c2ccc(/C=C3\SC(=O)N(CC(=O)NS(=O)(=O)N4CCCC4)C3=O)cc12 [Compound 40, 2-[(5Z)-5-({1-[4-Chloro-2-(trifluoromethyl)benzyl]-3-methyl-1H-indazol-5-yl}methylidene)-2,4-dioxo-1,3-thiazolidin-3-yl]-N-(pyrrolidin-1-ylsulfonyl)acetamide] | -10% | -23%
19 | 7.59 | O=C(O)CN1C(=O)S/C(=C\c2ccc3c(cnn3Cc3ccc(C(F)(F)F)cc3C(F)(F)F)c2)C1=O [Compound 59, [(5Z)-5-({1-[2,4-Bis(trifluoromethyl)benzyl]-1H-indazol-5-yl}methylidene)-2,4-dioxo-1,3-thiazolidin-3-yl]acetic acid] | -23% | -25%
20 | 8.30 | CN1CCC[C@H]1CN1C(=O)S/C(=C\c2ccc3c(cnn3Cc3ccc(Cl)cc3C(F)(F)F)c2)C1=O [Compound 121, (5Z)-5-({1-[4-Chloro-2-(trifluoromethyl)benzyl]-1H-indazol-5-yl}methylidene)-3-{[(2S)-1-methylpyrrolidin-2-yl]methyl}-1,3-thiazolidine-2,4-dione] | -59% | -37%
